Assay results: patent US9809808B2, “Antimicrobial agents” (KATHOLIEKE UNIVERSITEIT LEUVEN K.U. LEUVEN R&D, priority 2008, dated 2017)
Like-named read-outs stand apart in the source and are kept apart here.

B1: POLY-gp144: SEQ ID NO: 35: phiKZgp144 (SEQ ID NO: 1) with N-terminal peptide stretch KRKKRKKRK (SEQ ID NO: 11) (protein)
chain: MGSKRKKRKKRKKVLRKGDRGDEVCQLQTLLNLCGYDVGKPDGIFGNNTFNQVVKFQKDNCLDSDGIVGKNTWAELFSKYSPPIPYKTIPMPTANKSRAAATPVMNAVENATGVRSQLLLTFASIESAFDYEIKAKTSSATGWFQFLTGTWKTMIENYGMKYGVLTDPTGALRKDPRISALMGAELIKENMNILRPVLKREPTDTDLYLAHFFGPGAARRFLTTGQNELAATHFPKEAQANPSIFYNKDGSPKTIQEVYNLMDGKVAAHRK
modifications: POLY-gp144

Test system: Burkholderia solanacearum
Type: cell-based
Details: 100 μg/ml undialyzed protein, 1 hour, room temperature

Molecule	Reduction [%] (relative inactivation)	Reduction [%] (relative inactivation) (listed as POLYKZ144)
phiKZgp144: SEQ ID NO: 1: unmodified modular endolysin originating from Pseudomonas aeruginosa phage φKZ [reference compound]	0	
B1		99-99.9%
